# Data taken from patent US6627399B1, “RNA polymerase transcription promoters and nucleic acid sequencing method” (Riken, priority 1998, dated 2003).
# Molecular target: wild-type T7 RNA polymerase (Escherichia phage T7, UniProt P00573)
# Assay: Accelerating effect of polyamines on in vitro transcription activity of T7 RNA polymerase ([α32P]UTP incorporation, gel electrophoresis)
# Type: biochemical, bacteriophage T7
# Set-up: key: fold radioactivity relative to blank without polyamine
# Details: polyamine final concentration 2 mM, 37° C. for one hour; amplification of radioactivity of transcription products compared to a blank without polyamine
# Method: An activation level was evaluated by observing an effect of a polyamine on in vitro transcription activation using bacteriophage T7 RNA polymerase in the reaction system below.
# Each polyamine was added to 10 μl of reaction solution (40 mM Tris-Cl, pH 8.0, 8 mM MgCl2, 5 mM DTT, 200 µM GMP, wild-type T7 RNA polymerase 5U, 0.2 μCi [α32P]UTP, dsDNA produced by cleavage of pBluescript [Stratagene] by a restriction enzyme Pvull 500 μM as rNTP template DNA) to yield a final concentration of 2 mM, then reacted at 37° C. for one hour. After the reaction, 10 μl of formamide loading dye (98% formamide, 10 mM EDTA) was added to the products, heated at 90° C. for modification, subsequently analyzed by electrophoresis on 4% acrylamide gel. The gel was dried after the electrophoresis, observed for radioactivity contained in the transcription products using the BAS2000 image analysis system (Fujiphotofilm Inc.), and evaluated for activation level of each polyamine.
# Data is given in amplification of radioactivity compared to a blank in which a reaction is carried out in parallel in the same condition excepting no polyamine was added.
# Chain of wild-type T7 RNA polymerase (P00573 whole entry): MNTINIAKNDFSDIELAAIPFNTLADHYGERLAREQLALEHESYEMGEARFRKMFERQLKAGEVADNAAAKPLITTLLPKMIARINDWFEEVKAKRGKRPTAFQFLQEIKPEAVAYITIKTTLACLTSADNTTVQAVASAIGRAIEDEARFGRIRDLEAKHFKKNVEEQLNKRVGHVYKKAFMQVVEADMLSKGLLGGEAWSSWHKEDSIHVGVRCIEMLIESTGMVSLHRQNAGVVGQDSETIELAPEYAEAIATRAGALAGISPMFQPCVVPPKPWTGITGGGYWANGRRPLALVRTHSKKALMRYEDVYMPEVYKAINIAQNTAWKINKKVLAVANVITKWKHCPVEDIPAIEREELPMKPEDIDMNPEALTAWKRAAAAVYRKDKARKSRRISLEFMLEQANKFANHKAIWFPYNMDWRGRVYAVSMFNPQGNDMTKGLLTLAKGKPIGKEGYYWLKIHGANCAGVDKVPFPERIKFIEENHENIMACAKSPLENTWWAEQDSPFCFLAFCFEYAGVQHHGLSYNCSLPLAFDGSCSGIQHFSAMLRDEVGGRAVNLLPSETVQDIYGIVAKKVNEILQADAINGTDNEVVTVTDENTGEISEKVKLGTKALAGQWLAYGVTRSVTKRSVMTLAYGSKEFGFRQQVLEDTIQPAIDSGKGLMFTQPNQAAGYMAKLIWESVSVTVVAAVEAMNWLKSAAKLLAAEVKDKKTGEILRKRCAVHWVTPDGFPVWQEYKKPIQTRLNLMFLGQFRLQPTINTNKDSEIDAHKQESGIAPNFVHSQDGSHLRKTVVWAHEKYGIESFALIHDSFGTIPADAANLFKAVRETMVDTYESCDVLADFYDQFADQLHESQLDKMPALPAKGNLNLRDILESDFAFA
row,SMILES,Activity Level
1,"NCCCCNCCCCCCCCNCCCCN [Compound 19, 1,18-diamino-5,14-diazaoctadecane]",1.41
2,"CCN(CCCCCN(CC)S(=O)(=O)c1ccc(C)cc1)S(=O)(=O)c1ccc(C)cc1 [Compound 22, N1,N5-di(p-toluenesulfonyl)-di(ethylamino)pentane]",1.43
3,"CCNCCCCCCCCNCC [Compound 21, N1,N8di(ethylamino)-octane]",4.91
4,"CCNCCCCNCCCCCCCNCCCCNCC [Compound 15d, 1,17-di(ethylamino)-5,13-diazaheptadecane]",1.29
5,"CCNCCCCNCCCCCCCCNCCCCNCC [Compound 15e, 1, 18-di(ethylamino)-5,14-diazaoctadecane]",2.52
6,"CCNCCCCNCCCCNCCCCNCC [Compound 15a, 1,14-di(ethylamino)-5,10-diazatetradecane]",1.21
7,"CCNCCCCNCCCCCCCCCNCCCCNCC [Compound 15f, 1,19-di(ethylamino)-5,15-diazanonadecane]",1.18
8,"CCNCCCCCNCC [Compound 23, N1,N5-di(ethylamino)pentane]",3.52
9,"CCNCCCCNCCCCCNCCCCNCC [Compound 15b, 1,15-di(ethylamino)-5,11-diazapentadecane]",1.18
10,"CCNCCCNCCCCN [Compound 18, 1-ethylamino-8-amino-4-azaoctane]",1.12
11,"CCNCCCCNCCCCCCCCCCNCCCCNCC [Compound 15g, 1,20-di(ethylamino)-5,16-diazaeicosane]",2.01
12,"CCN(CCCCCCCCN(CC)S(=O)(=O)c1ccc(C)cc1)S(=O)(=O)c1ccc(C)cc1 [Compound 20, N1,N8-di(p-toluenesulfonyl)-di(ethylamino)-octane]",1.11
13,"CCNCCCCNCCCCCCNCCCCNCC [Compound 15c, 1,16-di (ethylamino)-5,12-diazahexadecane]",1.12
